# From patent US9051325B2, “Bicyclic [5,6] imidazo pyrimodone compounds for use in the treatment of diseases or conditions mediated by Lp-PLA2” (GlaxoSmithKline Intellectual Property Development Limited, priority 2013, dated 2015)
# Read-outs that look alike come from different tables or passages of the source.
# How the values were obtained:
# [1] = molecular target: T1, recombinant human Lp-PLA2 (Homo sapiens, UniProt Q13093); test: Recombinant human Lp-PLA2 assay (rhLp-PLA2, PED6 assay); assay type: biochemical
# T1 sequence (Q13093 22-441): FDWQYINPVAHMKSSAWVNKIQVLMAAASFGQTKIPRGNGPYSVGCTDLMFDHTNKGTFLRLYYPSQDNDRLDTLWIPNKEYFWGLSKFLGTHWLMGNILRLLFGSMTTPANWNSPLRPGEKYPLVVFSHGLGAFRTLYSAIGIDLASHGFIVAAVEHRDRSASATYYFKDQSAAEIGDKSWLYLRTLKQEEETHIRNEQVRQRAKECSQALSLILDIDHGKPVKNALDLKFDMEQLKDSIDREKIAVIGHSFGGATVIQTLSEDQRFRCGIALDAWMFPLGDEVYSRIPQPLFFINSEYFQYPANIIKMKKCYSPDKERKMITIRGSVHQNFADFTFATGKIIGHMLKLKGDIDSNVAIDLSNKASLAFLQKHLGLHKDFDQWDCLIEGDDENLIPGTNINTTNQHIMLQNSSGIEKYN
# Summary of the method: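 Compounds were preincubated 30 min with 4 nM […] rhLp-PLA2 in 50 mM HEPES pH 7.4, 150 mM NaCl, 1 mM CHAPS, then PED6 substrate […] was added for 20 min at room temperature in the dark. Fluorescence was read at ex 480/em 540, and pIC50 was fitted from 1:3 serial dilutions.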
# [2] = molecular target: T2, Lp-PLA2 in human plasma (Homo sapiens, UniProt Q13093); test: Lp-PLA2 human plasma assay (Thio-PAF assay); assay type: biochemical; conditions: pooled human plasma; lower bounds; read-out: pIC50 values in the thio-PAF assay (converted)
# T2 construct: from tissue; host or cells: pooled human plasma
# T2 sequence (Q13093 22-441): T1 sequence (Q13093 22-441)
# Summary of the method: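 Pooled human plasma preincubated 30 min with compounds, then given 2-thio-PAF substrate with CPM and NEM in 50 mM HEPES pH 7.4, 150 mM NaCl, 1 mM CHAPS. Reaction quenched after 2 min with TFA and read by fluorescence (ex 380/em 485) after 40 min at room temperature; pIC50 from curve fit.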
# [3] = lower bounds, read-out: pIC50 values in the PED6 assay (converted)
# [4] = read-out: rhLp-PLA2 (PED6 assay) (pIC50) (converted)
"IC50 [1, 3]",IC50 [2],"IC50 [1, 4]",Compound
≤ 1 nM,≤ 100 nM,,"CC1(C)Cn2c(cc(OCc3ccc(Oc4ccc(C(F)(F)F)nc4)c(F)c3)nc2=O)N1 [Example E37, 7-((3-fluoro-4-((6-(trifluoromethyl)pyridin-3-yl)oxy)benzyl)oxy)-2,2-dimethyl-2,3-dihydroimidazo[1,2-c]pyrimidin-5(1H)-one]"
≤ 1 nM,≤ 100 nM,0.0794 nM,"CN1c2cc(OCc3cc(F)c(Oc4cnc(C(F)(F)F)nc4)c(F)c3)nc(=O)n2CC1(C)C [Example E95, 7-((3,5-difluoro-4-((2-(trifluoromethyl)pyrimidin-5-yl)oxy)benzyl)oxy)-1,2,2-trimet-hyl-2,3-dihydroimidazo[1,2-c]pyrimidin-5(1H)-one]"
≤ 1 nM,≤ 100 nM,,"C[C@H]1Cn2c(cc(OCc3ccc(Oc4cncc(C(F)(F)F)c4)c(C#N)c3)nc2=O)N1C [Example E55, (S)-5-(((1,2-dimethyl-5-oxo-1,2,3,5-tetrahydroimidazo[1,2-c]pyrimidin-7-yl)oxy)methyl)-2-((5-(trifluoromethyl)pyridin-3-yl)oxy)benzonitrile]"
≤ 10 nM,≤ 100 nM,,"C[C@@H]1Cn2c(cc(OCc3cc(F)c(F)c(F)c3)nc2=O)N1C [Example E48, (R)-1,2-dimethyl-7-((3,4,5-trifluorobenzyl)oxy)-2,3-dihydroimidazo[1,2-c]pyrimidin-5(1H)-one]"
≤ 1 nM,≤ 100 nM,,"CC1(C)Cn2c(cc(OCc3cc(F)c(Oc4ccc(C(F)(F)F)nc4)c(F)c3)nc2=O)N1 [Example E39, 7-((3,5-difluoro-4-((6-(trifluoromethyl)pyridin-3-yl)oxy)benzyl)oxy)-2,2-dimethyl-2,3-dihydroimidazo[1,2-c]pyrimidin-5(1H)-one]"
≤ 1 nM,≤ 100 nM,0.0398 nM,"CN1c2cc(OCc3ccc(Oc4ccnc(C(F)(F)F)c4)c(F)c3)nc(=O)n2CC1(C)C [Example E59, 7-((3-fluoro-4-((2-(trifluoromethyl)pyridin-4-yl)oxy)benzyl)oxy)-1,2,2-trimethyl-2,3-dihydroimidazo[1,2-c]pyrimidin-5(1H)-one]"
≤ 1 nM,≤ 100 nM,,"C[C@H]1Cn2c(cc(OCc3cc(F)c(Oc4ccc(C(F)(F)F)nc4)c(F)c3)nc2=O)N1C [Example E73, (S)-7-((3,5-difluoro-4-((6-(trifluoromethyl)pyridin-3-yl)oxy)benzyl)oxy)-1,2-dimethyl-1-2,3-dihydroimidazo[1,2-c]pyrimidin-5(1H)-one]"
≤ 1 nM,≤ 100 nM,,"CC1(C)Cn2c(cc(OCc3cc(F)c(Oc4ccnc(Cl)c4)c(F)c3)nc2=O)N1 [Example E45, 7-((4-((2-chloropyridin-4-yl)oxy)-3,5-difluorobenzyl)oxy)-2,2-dimethyl-2,3-dihydroimidazo[1,2-c]pyrimidin-5(1H)-one]"
≤ 1 nM,≤ 100 nM,,"CC1(C)Cn2c(cc(OCc3ccc(Oc4cncc(Cl)c4)c(F)c3)nc2=O)N1 [Example E90, 7-((4-((5-chloropyridin-3-yl)oxy)-3-fluorobenzyl)oxy)-2,2-dimethyl-2,3-dihydroimidazo[1,2-c]pyrimidin-5(1H)-one]"
≤ 1 nM,≤ 100 nM,,"C[C@H]1Cn2c(cc(OCc3ccc(Oc4ccnc(C(F)(F)F)c4)c(F)c3)nc2=O)N1C [Example E10, (S)-7-((3-fluoro-4-((2-(trifluoromethyl)pyridin-4-yl)oxy)benzyl)oxy)-1,2-dimethyl-2,3-dihydroimidazo[1,2-c]pyrimidin-5(1H)-one]"
≤ 1 nM,≤ 100 nM,,"C[C@H]1Cn2c(cc(OCc3ccc(Oc4ccc(C#N)c(C(F)(F)F)c4)c(F)c3)nc2=O)N1C [Example E19, (S)-4-(4-(((1,2-dimethyl-5-oxo-1,2,3,5-tetrahydroimidazo[1,2-c]pyrimidin-7-yl)ox-y)methyl)-2-fluorophenoxy)-2-(trifluoromethyl)benzonitrile]"
≤ 1 nM,≤ 100 nM,,"CC1(C)Cn2c(cc(OCc3cc(F)c(Oc4ccnc(C(F)(F)F)c4)c(F)c3)nc2=O)N1 [Example E127, 7-((3,5-difluoro-4-((2-(trifluoromethyl)pyridin-4-yl)oxy)benzyl)oxy)-2,2-dimethyl-2,3-dihydroimidazo[1,2-c]pyrimidin-5(1H)-one]"
≤ 10 nM,≤ 100 nM,,"[2H]C([2H])(Oc1cc2n(c(=O)n1)CC(C)(C)N2CC)c1cccc(F)c1F [Example E102, 7-(dideutero(2,3-difluorobenzyl)oxy)-1-ethyl-2,2-dimethyl-2,3-dihydroimidazo[1,2-c]pyrimidin-5(1H)-one]"
≤ 1 nM,≤ 100 nM,,"CC1(C)Cn2c(cc(OCc3ccc(Oc4ccnc(Cl)c4)c(F)c3)nc2=O)N1 [Example E82, 7-((4-((2-chloropyridin-4-yl)oxy)-3-fluorobenzyl)oxy)-2,2-dimethyl-2,3-dihydroimidazo[1,2-c]pyrimidin-5(1H)-one]"
≤ 1 nM,≤ 100 nM,0.0794 nM,"CN1c2cc(OCc3cc(F)c(Oc4ccnc(C(F)(F)F)c4)c(F)c3)nc(=O)n2CC1(C)C [Example E25, 7-((3,5-difluoro-4-((2-(trifluoromethyl)pyridin-4-yl)oxy)benzyl)oxy)-1,2,2-trimethyl-2,3-dihydroimidazo[1,2-c]pyrimidin-(1H)-one]"
≤ 10 nM,≤ 100 nM,,"CN1c2cc(OCc3ccc(F)cc3F)nc(=O)n2CC1(C)C [Example E77, 7-((2,4-difluorobenzyl)oxy)-1,2,2-trimethyl-2,3-dihydroimidazo[1,2-c]pyrimidin-5(1H)-one]"
≤ 1 nM,≤ 100 nM,0.158 nM,"C[C@H]1Cn2c(cc(OCc3ccc(Oc4cncc(Cl)c4)c(F)c3)nc2=O)N1C [Example E23, (S)-7-((4-((5-chloropyridin-3-yl)oxy)-3-fluorobenzyl)oxy)-1,2-dimethyl-2,3-dihydroimidazo[1,2-c]pyrimidin-5(1H)-one]"
≤ 10 nM,≤ 100 nM,,"C[C@H]1Cn2c(cc(OCc3ccc(F)c(C#N)c3)nc2=O)N1C [Example E75, (S)-5-(((1,2-dimethyl-5-oxo-1,2,3,5-tetrahydroimidazo[1,2-c]pyrimidin-7-yl)oxy)methyl)-2-fluorobenzonitrile]"
≤ 1 nM,≤ 100 nM,,"CC1(C)Cn2c(cc(OCc3ccc(Oc4ccc(F)nc4)c(F)c3)nc2=O)N1 [Example E69, 7-((3-fluoro-4-((6-fluoropyridin-3-yl)oxy)benzyl)oxy)-2,2-dimethyl-2,3-dihydroimidazo[1,2-c]pyrimidin-5(1H)-one]"
≤ 1 nM,≤ 100 nM,0.1 nM,"CN1c2cc(OCc3ccc(Oc4cncc(Cl)c4)c(F)c3)nc(=O)n2CC1(C)C [Example E63, 7-((4-((5-chloropyridin-3-yl)oxy)-3-fluorobenzyl)oxy)-1,2,2-trimethyl-2,3-dihydroimidazo[1,2-c]pyrimidin-5(1H)-one]"
≤ 1 nM,≤ 100 nM,,"CC1(C)Cn2c(cc(OCc3cc(F)c(Oc4cnc(C(F)(F)F)nc4)c(F)c3)nc2=O)N1 [Example E100, 7-((3,5-difluoro-4-((2-(trifluoromethyl)pyrimidin-5-yl)oxy)benzyl)oxy)-2,2-dimethyl-2,3-dihydroimidazo[1,2-c]pyrimidin-5(1H)-one]"
≤ 10 nM,≤ 100 nM,,"C[C@H]1Cn2c(cc(OCc3cc(F)c(F)c(F)c3)nc2=O)N1 [Example E49, (S)-2-methyl-7-((3,4,5-trifluorobenzyl)oxy)-2,3-dihydroimidazo[1,2-c]pyrimidin-5(1H)-one]"
